Measurements: US8343966B2, “Organic compounds” (Novartis AG, priority 2008, dated 2013)

Biological target: T1, human ALK5 (ALK5 T204D kinase domain) (Homo sapiens, UniProt P36897, T204D)
T1 construct: The kinase domain of human ALK5 (amino acids 200-503); made in house; host or cells: insect cells (baculovirus)
T1 sequence (P36897 200-503 T204D): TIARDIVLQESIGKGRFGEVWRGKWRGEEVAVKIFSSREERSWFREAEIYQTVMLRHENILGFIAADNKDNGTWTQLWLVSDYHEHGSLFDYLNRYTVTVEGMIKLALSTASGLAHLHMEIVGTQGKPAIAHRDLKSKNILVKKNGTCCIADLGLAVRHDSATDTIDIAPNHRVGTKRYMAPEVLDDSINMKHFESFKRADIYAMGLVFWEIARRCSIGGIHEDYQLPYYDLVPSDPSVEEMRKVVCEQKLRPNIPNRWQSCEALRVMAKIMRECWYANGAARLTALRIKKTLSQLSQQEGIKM
Assay: ALK5 kinase assay, [33P] phosphate incorporation into casein
Type: biochemical
Settings: casein substrate, 1 μM unlabelled ATP
Protocol: The kinase activity of ALK5 is assessed by measuring radiolabelled phosphate [33P] incorporation in to the generic substrate, casein. The kinase domain of human ALK5 (amino acids 200-503) is fused to an N-terminal histidine tag. The kinase activity of ALK5 is rendered constitutive via point mutation at amino acid 204 (threonine to aspartate modification, ALK5 T204D) and the kinase construct is engineered to be expressed from a baculovirus expression construct in insect cells. The purified, recombinantly-expressed histidine-tagged ALK5 T204D protein is dissolved at 5.4 mg/ml in 50 mM Tris-HCl pH 8.0, 150 mM NaCl, 5 mM DTT. ALK5 T204D is dissolved to 2.5 μg/ml in assay buffer (Assay buffer: 20 mM Tris-HCl pH 7.4, 10 mM MgCl2, 2 mM MnCl2) on the day of use.
Test compounds and reference compounds are dissolved in assay buffer without DTT containing 5% (v/v) DMSO. Stock solutions of test and reference compounds are diluted in assay buffer with DTT (1.25 mM) containing 4.5% (v/v) DMSO. 10 μl of test or reference compound are added to the appropriate wells of 96 well U-bottomed plate. Total enzyme activity is determined by measuring ALK5 T204D activity in the absence of ALK5 kinase inhibitor reference compounds. Non-specific binding (NSB) is determined by measuring the activity of ALK5 T204D in the presence of ALK5 kinase inhibitor reference compounds. 10 μl of dephosphorylated casein stock solution (dephosphorylated casein is dissolved in ddH2O at 20 mg/ml) is added per well (200 μg/well final assay concentration). 20 μl of ALK5 T204D (2.5 μg/ml solution) is added per well (50 ng/well final assay concentration). The plates are left to incubate at room temperature for 10 minutes.
10 μl of ATP mix is added to the well to initiate the reaction (0.66 nM [^33P]ATP/1 μM unlabelled ATP/well final assay concentration). The ATP mix is prepared as follows, unlabelled ATP (3 mM) is dissolved in ddH2O and pH adjusted to 7.4. The stock concentration of [^33P]ATP is 10 μCi/μl. The appropriate volume of [^33P]ATP is added to unlabelled ATP solution such that the final assay concentration per well is 0.1 μCi. Following addition of the ATP mix, the plates are incubated at room temperature for 50 minutes. The kinase reaction is terminated by the addition of 50 μL Stop Buffer (20 mM Tris-HCl pH 7.4, 10 mM EDTA).
75 μl/well from the reaction plate is transferred to a Multiscreen-IP plate (MultiScreen-IP plates are prepared by added 50 μL of 70% (v/v) ethanol per well and incubated for 5 minutes at room temperature. The ethanol is removed by aspiration via a MultiScreen HTS Vacuum Manifold unit (Millipore, Cat no: MSVMHT500). The plates are washed twice by adding 200 μl/well ddH2O). The MultiScreen-IP plate is incubated at room temperature for 30 minutes to allowing binding of casein to the plate. The MultiScreen-IP plates are washed three times by adding 200 μl/well 100 mM phosphoric acid solution and the gasket is carefully removed from the back of the MultiScreen-IP plate and the plate dried in the oven for 30 minutes. The MultiScreen-IP plate is backsealed, 50 μL of Microscint™20 is added, then the plates are topsealed and radiolabelled casein detected and quantified on a TopCount™ plate-reader using the ^33P scintillation protocol.

| Compound | IC50 |
| --- | --- |
| C[C@@H]1CN(Cc2ccc(-c3cncc(-c4cc(-c5ccccn5)nc(C(C)(C)O)c4)c3)cc2)CCN1 [Example 2.91, 2-{5″-[4-((R)-3-Methyl-piperazin-1-ylmethyl)-phenyl]-[2,2′;4′,3″]terpyridin-6′-yl}-propan-2-ol] | 0.032 µM |
| CNc1cc(-c2cncc(-c3ccnc(OC)c3)c2)cc(-c2ccccn2)n1 [Example 2.17, (2′″-Methoxy-[2,2′;4′,3″;5″,4′″]quaterpyridin-6′-yl)-methyl-amine] | 0.236 µM |
| CNc1cc(-c2cncc(-c3cccc(CN4CCN(C)CC4)c3)c2)cc(-c2ccccn2)n1 [Example 2.23, Methyl-{5″-[3-(4-methyl-piperazin-1-ylmethyl)-phenyl]-[2,2′;4′,3″]terpyridin-6′-yl}-amine] | 0.016 µM |
| CNc1cc(-c2cncc(-c3cnn(C4CCNCC4)c3)c2)cc(-c2ccn(C)n2)n1 [Example 2.179, Methyl-[6′-(1-methyl-1H-pyrazol-3-yl)-5-(1-piperidin-4-yl-1H-pyrazol-4-yl)-[3,4′]bipyridinyl-2′-yl]-amine] | 0.005 µM |
| CNc1cc(-c2cncc(-c3ccc(C(=O)N4CCN(C)CC4)cc3)c2)cc(-c2cccc(C)n2)n1 [Example 2.28, [4-(6-Methyl-6′-methylamino-[2,2′;4′,3″]terpyridin-5″-yl)-phenyl]-(4-methyl-piperazin-1-yl)-methanone] | 0.052 µM |
| O=C(c1ccc(-c2cncc(-c3cc(NC4CC4)nc(-c4ccccn4)c3)c2)cc1)N1CCNCC1 [Example 2.30, [4-(6′-Cyclopropylamino-[2,2′;4′,3″]terpyridin-5″-yl)-phenyl]-piperazin-1-yl-methanone] | 0.008 µM |
| [2H]C([2H])([2H])N1CCN(Cc2ccc(-c3cncc(-c4cc(-c5ccccn5)nc(C(C)(C)O)c4)c3)cc2)CC1 [Example 2.85, 2-{5″-[4-(4-Methyl-d3-piperazin-1-ylmethyl)-phenyl]-[2,2′;4′,3″]terpyridin-6′-yl}-propan-2-ol] | 0.074 µM |
| CNc1cc(-c2cncc(-c3ccc(CN4CCNCC4)cc3)c2)cc(-c2ccccn2)n1 [Example 2.172, Methyl-[5″-(4-piperazin-1-ylmethyl-phenyl)-[2,2′;4′,3″]terpyridin-6′-yl]-amine] | 0.01 µM |
| CC(C)(O)c1cc(-c2cncc(-c3ccc(CN4CCNCC4)cc3)c2)cc(-c2ccccn2)n1 [Example 2.81, 2-[5″-(4-piperazin-1-ylmethyl-phenyl)-[2,2′;4′,3″]terpyridin-6′-yl]-propan-2-ol] | 0.028 µM |
| CC(C)N1CCN(Cc2ccc(-c3cncc(-c4cc(N)nc(-c5ccccn5)c4)c3)cc2)CC1 [Example 2.72, 5″-[4-(4-Isopropyl-piperazin-1-ylmethyl)-phenyl]-[2,2′;4′,3″]terpyridin-6′-ylamine] | 0.042 µM |
| [2H]C([2H])([2H])N1CCN(C(=O)c2ccc(-c3cncc(-c4cc(-c5ccccn5)nc(C(C)(C)O)c4)c3)cc2)CC1 [Example 2.83, {4-[6′-(1-Hydroxy-1-methyl-ethyl)-[2,2′;4′,3″]terpyridin-5″-yl]-phenyl}-(4-methyl-d3-piperazin-1-yl)-methanone] | 0.059 µM |
| Nc1cc(-c2cncc(-c3ccc(CN4CCNCC4)cc3)c2)cc(-c2ccccn2)n1 [Example 2.159, 5″-(4-piperazin-1-ylmethyl-phenyl)-[2,2′;4′,3″]terpyridin-6′-ylamine] | 0.024 µM |
| CNc1cc(-c2cncc(-c3ccc(CN4CCN(C(C)C)CC4)cc3)c2)cc(-c2ccccn2)n1 [Example 2.24, {5″-[4-(4-Isopropyl-piperazin-1-ylmethyl)-phenyl]-[2,2′;4′,3″]terpyridin-6′-yl}-methyl-amine] | 0.014 µM |
| CC(C)N1CCN(Cc2ccc(-c3cncc(-c4cc(NC5CC5)nc(-c5ccccn5)c4)c3)cc2)CC1 [Example 2.31, Cyclopropyl-{5″-[4-(4-isopropyl-piperazin-1-ylmethyl)-phenyl]-[2,2′;4′,3″]terpyridin-6′-yl}-amine] | 0.004 µM |
| [2H]C([2H])([2H])Nc1cc(-c2cncc(-c3cnn(C)c3)c2)cc(-c2ccccn2)n1 [Example 2.104, Methyl-d3-[5″-(1-methyl-1H-pyrazol-4-yl)-[2,2′;4′,3″]terpyridin-6′-yl]-amine] | 0.013 µM |
| [2H]C([2H])([2H])Nc1cc(-c2cncc(-c3ccc(CN4CCNCC4)cc3)c2)cc(-c2ccccn2)n1 [Example 2.102, Methyl-d3-[5″-(4-piperazin-1-ylmethyl-phenyl)-[2,2′;4′,3″]terpyridin-6′-yl]-amine] | 0.014 µM |
| CC(C)(O)c1cc(-c2cncc(-c3cnn(C4CCNCC4)c3)c2)cc(-c2ccccn2)n1 [Example 2.88, 2-[5″-(1-Piperidin-4-yl-1H-pyrazol-4-yl)-[2,2′;4′,3″]terpyridin-6′-yl]-propan-2-ol] | 0.022 µM |
| CC(C)N1CCN(Cc2ccc(-c3cncc(-c4cc(-c5ccccn5)nc(C(C)(C)O)c4)c3)cc2)CC1 [Example 2.80, 2-(5″-[4-(4-Isopropyl-piperazin-1-ylmethyl)-phenyl]-[2,2′;4′,3″]terpyridin-6′-yl)-propan-2-ol] | 0.039 µM |
| CNc1cc(-c2cncc(-c3ccc(CN4CCN(C)CC4)cc3)c2)cc(-c2ccccn2)n1 [Example 2.26, Methyl-{5″-[4-(4-methyl-piperazin-1-ylmethyl)-phenyl]-[2,2′;4′,3″]terpyridin-6′-yl}-amine] | 0.012 µM |
| Cc1cccc(-c2cc(-c3cncc(-c4ccc(CN5CCN(C(C)C)CC5)cc4)c3)cc(N)n2)n1 [Example 2.71, 5″-[4-(4-Isopropyl-piperazin-1-ylmethyl)-phenyl]-6-methyl-[2,2′;4′,3″]terpyridin-6′-ylamine] | 0.074 µM |
| CNc1cc(-c2cncc(-c3ccc(C(=O)N4CCN(C)CC4)cc3)c2)cc(-c2ccccn2)n1 [Example 2.1, [4-(6′-Methylamino-[2,2′;4′,3″]terpyridin-5″-yl)-phenyl]-(4-methyl-piperazin-1-yl)-methanone] | 0.017 µM |
| c1ccc(-c2cc(-c3cncc(-c4ccc(CN5CCNCC5)cc4)c3)cc(NC3CC3)n2)nc1 [Example 2.70, Cyclopropyl-[5″-(4-piperazin-1-ylmethyl-phenyl)-[2,2′;4′,3″]terpyridin-6′-yl]-amine] | 0.089 µM |
| CC(C)(O)c1cc(-c2cncc(-c3cnn(C4CCOCC4)c3)c2)cc(-c2ccccn2)n1 [Example 2.84, 2-{5″-[1-(Tetrahydro-pyran-4-yl)-1H-pyrazol-4-yl]-[2,2′;4′,3″]terpyridin-6′-yl}-propan-2-ol] | 0.02 µM |
| CC(C)N1CCC(n2cc(-c3cncc(-c4cc(-c5ccccn5)nc(C(C)(C)O)c4)c3)cn2)CC1 [Example 2.89] | 0.017 µM |
| Cc1cccc(-c2cc(-c3cncc(-c4ccc(CO)cc4)c3)cc(NC3CC3)n2)n1 [Example 2.69, [4-(6′-Cyclopropylamino-6-methyl-[2,2′;4′,3″]terpyridin-5″-yl)-phenyl]-methanol] | 0.028 µM |
| CNc1cc(-c2cncc(-c3ccc(N4CCN(C)CC4)cc3)c2)cc(-c2ccccn2)n1 [Example 2.2, Methyl-{5″-[4-(4-methyl-piperazin-1-yl)-phenyl]-[2,2′;4′,3″]terpyridin-6′-yl}-amine] | 0.03 µM |
| CC1(C)CN(Cc2ccc(-c3cncc(-c4cc(-c5ccccn5)nc(C(C)(C)O)c4)c3)cc2)CCN1 [Example 2.92, 2{-5″-[4-(3,3-Dimethyl-piperazin-1-ylmethyl)-phenyl]-[2,2′;4′,3″]terpyridin-6′-yl}-propan-2-ol] | 0.035 µM |
